Results taken from US20250388857A1, “USE OF TRIBUTYRIN AS AN ADDITIVE FOR EMBRYONIC DEVELOPMENT CULTURE MEDIUM IN VITRO” (Institute of Animal Sciences and Veterinary Medicine, Hubei …, priority 2024, published 2025).

Legend:
histone H3K27ac = assay: detection of histone acetylation level (H3K27ac immunofluorescence); assay type: cell-based, mouse; conditions: 100 μmol/L tributyrin, 2-cell stage, vs control
Method: (§1) Therefore, exemplically, experiments are carried out in the experimental group of this example using culture medium added 100 μmol/L of tributyrin, specifically, the experiments are divided into the following two groups:
(§2) Experimental group: the development culture medium in vitro of mouse embryos containing 100 μmol/L of tributyrin was added to the special dish for embryo culture, 2 droplets were made, 50 μL of culture medium per droplets, covered with paraffin oil, pre-balanced in an incubator with 37° C., 5% CO2 saturated humidity for more than 6 hours, and the embryos were placed in well-balanced culture droplets, with 25˜35 pieces per droplets.
Referring to the steps of development culture in vitro of example 2, development culture in vitro was carried out on the above two treatment groups; embryos from the control group and the experimental group at the 2-cell stage were obtained, the histone H3K27ac level was detected by immunofluorescence. The specific methods and steps are as follows:
(1) Mouse embryos fixation and permeabilization: mouse embryos were placed in a washing solution (PBS containing 0.1% Tween-20 and 0.01% Triton X-100) for rapid washing for 1 time, then piped into the fixed permeabilization solution (PBS containing 4% paraformaldehyde and 0.5% Triton) and treated at room temperature for 50 min. […]

mouse embryos [1] = assay: detection of mitochondrial membrane potential, JC-1 staining; assay type: cell-based; conditions: 100 μmol/L tributyrin, 2-cell stage, vs control
Method: as §1, §2
Referring to the steps of development culture in vitro of example 2, development culture in vitro was carried out on the above two treatment groups; according to the instructions of the mitochondrial membrane potential J C-1 detection kit (Biyuntian, C2006), the embryos of the control group and the experimental group at the 2-cell stage were transferred into 1×J C-1 staining working solution, incubated in the dark at 37° C., 5% CO2 incubator for 30 min, then wash the embryos with 1×J C-1 staining buffer, it was placed under an inverted fluorescence microscope for observation and photography. Image J software was used to analyze the average fluorescence intensity of J C-1 red and J C-1 green in embryos.

SOD2 = assay: detection of antioxidant gene expression in mouse embryos (qPCR), SOD2; assay type: cell-based; conditions: 100 μmol/L tributyrin, 2-cell stage, vs control, RPLP0 internal control
Method: as §1, §2
(§3) Referring to the steps of development culture in vitro of example 2, development culture in vitro was carried out on the above two treatment groups; embryos from the control group and the experimental group at the 2-cell stage were obtained, the high-purity RNA was extracted according to the instructions of the RNAprep Pure Total RNA Extraction Kit for Micro Samples (Tiangen, DP420). […] (annealed) for 30 s; 40 cycles (PCR amplification); the fluorescent signal was collected at 55° C. extension, the RPLPO gene was used as an internal control, and the expression was calculated using the 2^−ΔΔct formula, wherein, the primer sequences of each gene are shown in Table 2 below: […]

mouse embryos [2] = assay: detection of ATP level in mouse embryos; assay type: cell-based; conditions: 100 μmol/L tributyrin, 2-cell stage, vs control
Method: as §1, §2
Referring to the steps of development culture in vitro of example 2, development culture in vitro was carried out on the above two treatment groups; according to the instructions of the ATP detection kit (Biyuntian, S0027), the embryos of the control group and the experimental group at the 2-cell stage were tested for ATP. Add 16 μL of ATP detection lysate to 200 μL centrifuge tube and transfer into 40 pieces 2-cell stage embryos. […] 64 μL of ATP working solution (ATP detection reagent diluent: ATP detection reagent=4:1) was added to the tube, vortex and centrifuged to the bottom of the tube, quickly transferred to a black 96-well plate with a multifunctional microplate reader for detection.

mouse embryos [3] = assay: detection of reactive oxygen species (ROS) in mouse embryos, DCFH-DA fluorescence; assay type: cell-based; conditions: 100 μmol/L tributyrin, 2-cell stage, vs control
Method: as §1, §2
Referring to the steps of development culture in vitro of example 2, development culture in vitro was carried out on the above two treatment groups; according to the instructions of the reactive oxygen species detection kit (Biyuntian, S0033S), DCFH-DA was diluted to a working solution concentration of 5 µM with KSOM culture medium. […] Image J software was used to analyze the average fluorescence intensity of ROS in embryos.

GPX4 = assay: detection of antioxidant gene expression in mouse embryos (qPCR), GPX4; assay type: cell-based; conditions: 100 μmol/L tributyrin, 2-cell stage, vs control, RPLP0 internal control
Method: as §1, §2, §3

mouse embryos [4] = assay: development in vitro of mouse embryos (rate of 2-cell, 4-cell, blastocyst); assay type: cell-based; conditions: for The rate of 2-cell: 24 h culture; for The rate of 4-cell: 48 h culture
Method: Specifically, at 4:00 p.m. on the first day, 10 IU pregnant horse serum gonadotropin was injected intraperitoneally into Kunming female mouse with SPF level for 6˜9 weeks, and 8 IU chorionic gonadotropin was injected after 48 hours. At 9:00 the next day, the 9˜12-week male mouse was killed by cervical dislocation, and the tail of the epididymis next to the vas deferens was taken, after cutting with ophthalmic scissors in 200 μL of insemination droplet (Sigma, MR-070-D) is to release sperm for 60 minutes. The insemination droplet need to be pre-balanced the night before. At the same time, 4 female mouse were killed by neck detachment, the enlargement of oviduct was disposed of in the sperm solution, the insulin needle was used to open the ampulla side under the microscope, and the cumulus-oocyte complex (COCs) would be released from the ampulla under the action of squeezing or internal pressure. 8˜10 μL of sperm and COCs were taken in the insemination droplet. After 6 h after insemination, the zygotes (with two pronuclei, both male and female) were cleaned and transferred to different treatments of KSOM culture medium, specific groups are as follows:
Control group: the basic development culture medium in vitro of mouse embryos was added to the special small dish for embryo culture, 2 droplets were made, 50 μL of culture medium per droplets, covered with paraffin oil, pre-balanced in an incubator with 37° C., 5% CO2 saturated humidity for more than 6 hours, and the embryos were placed in well-balanced culture droplets, with 25˜35 pieces per droplets;
as §2, with “Treatment group 1:” for “Experimental group:”, “50” for “100”, “droplets;” for “droplets.”
as §2, with “Treatment group 2:” for “Experimental group:”, “droplets;” for “droplets.”
as §2, with “Treatment group 3:” for “Experimental group:”, “200” for “100”, “droplets;” for “droplets.”
The above different treatment groups were incubated in an incubator with 37° C., 5% CO2 saturated humidity for 24 h, 48 h, 72 h and 96 h, corresponding to the 2-cell, 4-cell, morula and blastocyst stages of embryonic development, respectively, and the embryonic development was observed.
The rate of cleavage (%)=number of cleavage embryos/number of fertilized eggs with male and female pronuclei×100%
The rate of blastocyst (%)=number of blastocysts/number of cleavage embryos×100%

[5] = test system: 5 hmC level in mouse embryonic genome; assay: detection of DNA methylation level (5 hmC immunofluorescence); assay type: cell-based; conditions: 100 μmol/L tributyrin, 2-cell stage, vs control
Method: as §1, §2
Referring to the steps of development culture in vitro of example 2, development culture in vitro was carried out on the above two treatment groups; embryos from the control group and the experimental group at the 2-cell stage were obtained, in order to detect the DNA methylation level in mouse embryos, the cells were first fixed with paraformaldehyde, TritonX-100 enhanced the permeability of the cell membrane to facilitate the binding of antibody antigens. After acidification and base neutralization, the non-specific protein is blocked with 2% BSA, followed by incubation with the corresponding primary antibody and fluorescently labeled secondary antibody. The specific methods and steps are as follows: […]

CCCC(=O)OCC(COC(=O)CCC)OC(=O)CCC [tributyrin]
histone H3K27ac level in mouse embryos (histone H3K27ac): significantly increased | mitochondrial membrane potential level (relative fluorescence intensity of JC-1 red/green) (mouse embryos [1]): significantly improved | expression of antioxidant gene SOD2 (SOD2): significantly increased | ATP level in mouse embryos (mouse embryos [2]): significantly increased | ROS level (average fluorescence intensity of ROS) in mouse embryos (mouse embryos [3]): significantly reduced | expression of antioxidant gene GPX4 (GPX4): significantly increased | The rate of 2-cell (mouse embryos [4]; 50 μmol/L tributyrin in KSOM): 96.58 ± 0.83% | The rate of 4-cell (mouse embryos [4]; 50 μmol/L tributyrin in KSOM): 95.57 ± 0.57% | The rate of 2-cell (mouse embryos [4]; 100 μmol/L tributyrin in KSOM): 96.91 ± 0.76% | The rate of 4-cell (mouse embryos [4]; 100 μmol/L tributyrin in KSOM): 96.57 ± 0.37% | The rate of 2-cell (mouse embryos [4]; 200 μmol/L tributyrin in KSOM): 96.63 ± 0.5% | The rate of 4-cell (mouse embryos [4]; 200 μmol/L tributyrin in KSOM): 96.46 ± 0.5% | number of cells (microscopic observation, FIG. 1A) (mouse embryos [4]; treatment group compared to control group): increased significantly | 5 hmC level in mouse embryos [5]: significantly increased
